Each structure is given as a SMILES string.

The subject of assay [1] is Colonic Threshold in Normal Rats. Description: Colonic distension pain threshold in normal rats. It is filed as in vivo, Male Sprague-Dawley rats. Conditions: normal rats, control 43.33, NS vs control. The protocol:
(§1) Male Sprague-Dawley rats weighing 340 to 400 g were used in the study. The animals were housed three per cage in a regulated environment (20 ± 1°C, 50 ± 5% humidity, with light 8:00 AM to 8:00 PM). Under anethesia (ketamine 80 mg/kg i.p.; acepromazin 12 mg/kg i.p.), TNBS (50 mg/kg), or saline (1.5 mL/kg) was injected into the proximal colon (1 cm from the cecum). After the surgery, animals were individually housed in the regulated environment.
(§2) A balloon catheter (5-6 cm length) was inserted through the anus into the colon and kept in position (tip of balloon 5 cm from the anus) by taping the catheter to the base of the tail. The balloon was progressively inflated by step of 5 mm Hg, from 0 to 75 mm Hg, each step of inflation lasting 30 seconds. Each cycle of colonic distension was controlled by a standard barostat. The threshold corresponds to the pressure which produced the first abdominal contraction, at which time the cycle of distension was discontinued. To determine the colonic threshold, four cycles of distension were performed on the same animal.
In a first series of experiments, a group of eight rats treated with saline were subjected to a colonic distension session.
(§3) All test compounds were dissolved in saline except TNBS. TNBS was dissolved in EtOH 30% (w/v). Subcutaneous injection of vehicle was given in a volume of […].
(§4) Statistical significance between each group was determined using a one-way ANOVA followed by Student's unpaired t-test. Differences were considered statistically significant at p <0.05.

The test system of assay [2] is TNBS-Induced Chronic Colonic Allodynia. Description: TNBS-induced chronic colonic allodynia in rats (colonic distension threshold). The format is in vivo, Male Sprague-Dawley rats. Conditions: for Colonic Threshold: TNBS-treated rats, control 43.39, TNBS alone printed 1781; for dose relation of the inhibition of TNBS-induced colonic allodynia: gabapentin 100, 300, 500 mg/kg sc, CI-1008 30, 60, 100, 200 mg/kg sc; for colonic inflammatory effect of TNBS (colon weight, area of hyperemia and necrosis, colonic myeloperoxidase content): sc 30 minutes before measurement, Day 7 after TNBS. The protocol:
GABA analogs were evaluated in rats suffering from chronic visceral allodynia induced by trinitrobenzene sulfonic acid (TNBS).
In humans, digestive disorders are often associated with visceral pain. In these pathologies, the visceral pain threshold is decreased, indicating a visceral hypersensitivity. Consequently, the following study was designed to evaluate the effect of injection of TNBS into the colon on visceral pain threshold in an experimental model of colonic distension.
as §1, §2
In a second series, a group of eight rats treated with TNBS were subjected to a colonic distension session.
In a third series, a group of eight rats treated with TNBS received a subcutaneous (sc) injection of gabapentin or CI-1008 30 minutes prior to initiation of the colonic distension cycle.
as §3, §4
Pain threshold (pressure of distension inducing the first abdominal contraction) after distal colonic distension was determined at Day 7 in two groups of awake rats: control animals and TNBS-treated animals. […] Inflammatory parameters (colon weight, area of hyperemia and necrosis and colonic myeloperoxidase content) were measured in the proximal colon at Day 7 after TNBS treatment.
Gabapentin (100, 300, and 500 mg/kg sc) and CI-1008 (30, 60, 100, and 200 mg/kg sc) were administered 30 minutes before colonic distension and measurement of the inflammatory parameters.

The test system of the next assay is PGE2. Description: PGE2 content of gastric mucosa biopsies (ELISA) in indomethacin-treated rats. It is filed as in vivo, Male CD-Sprague-Dawley rats. Conditions: for effect on the inhibition of PGE2 caused by indomethacin: any dose tested (1-200 mg/kg orally). As to the method:
Male CD-Sprague-Dawley rats (132-202 g) were received and housed in a room with controlled temperature, humidity, and 12-hour light/dark cycle. After a period of acclimatization of 4 to 5 days, and after a 24-hour food fasting period, animals were used for the study described below.
Gabapentin or pregabalin (CI-1008) were dissolved in water and administered orally at the following doses: 1, 10, 100, and 200 mg/kg in a volume of 1 mL. Control animals were dosed with an equal volume of vehicle (1 mL of water). Sixty minutes later, all the animals received 1 mL of a solution of 80 mg/kg indomethacin dissolved in 5% aqueous NaHCO3. Control animals received 1 mL of 5% aqueous NaHCO3 orally. Experimental groups were as follows:
Animals were sacrificed by decapitation 4 hours post-indomethacin administration. The stomach was removed and opened along the greater curvature and its image digitized and stored on an optical disk using a 486-based PC computer equipped with CUE3 system imaging analysis software (Olympus Corp., Marietta, Georgia, USA). Two 6-mm biopsies were taken from a constant region of the gastric mucosa located in each side of the glandular portion of the stomach and their PGE2 content was measured using a commercially available ELISA kit (Assay Designs Inc., Ann Arbor, Michigan, USA). The presence of gastric damage was determined using the retrieved electronic image, and the extent of damage was measured using the CUE3 imaging software. Data are expressed as a percent of gastric area damaged and the PGE2 content (pg/mL).

Where [3] appears, read: 1 mg/kg orally before indomethacin 80 mg/kg, control 9525.27 ± 156.00, indomethacin + vehicle 1908.03 ± 72.31.
[4] abbreviates: 10 mg/kg orally before indomethacin 80 mg/kg, indomethacin + vehicle 1908.03 ± 72.31.
Where [5] appears, read: 100 mg/kg orally before indomethacin 80 mg/kg, indomethacin + vehicle 1908.03 ± 72.31.
Setting [6] is: 200 mg/kg orally before indomethacin 80 mg/kg, indomethacin + vehicle 1908.03 ± 72.31.

For the molecule `CC(C)C[C@H](CN)CC(=O)O` [CI-1008, (S)-3-(aminomethyl)-5-methylhexanoic acid], the “Colonic Threshold” value in assay [1] (200 mg/kg sc) was determined as 46.41 mm Hg; in assay [2] (30 mg/kg sc 30 min before colonic distension, Day 7), 2172 mm Hg; in assay [2] (60 mg/kg sc) it was 2547 mm Hg; in assay [2] (100 mg/kg sc), 33.13 mm Hg; in assay [2] (200 mg/kg sc), 40.47 mm Hg. Moreover, the “allodynia induced by TNBS (in words)” value in assay [2] (100 mg/kg sc) was “completely suppressed”. For the same molecule, the “dose relation of the inhibition of TNBS-induced colonic allodynia” value in assay [2] is listed as “dose-related inhibition”. For the same molecule, the “colonic inflammatory effect of TNBS (colon weight, area of hyperemia and necrosis, colonic myeloperoxidase content)” value in assay [2] is “neither gabapentin nor CI-1008 inhibited”. In addition, the “PGE2 Synthesis” value with PGE2 (setting [3]) is 1209.95 ± 105.50 pg/mL; with PGE2 (setting [4]) it was 2666.16 ± 307.45 pg/mL; in the assay on PGE2 (setting [5]), 3994.45 ± 318.95 pg/mL; in the assay on PGE2 (setting [6]), 3288.92 ± 407.43 pg/mL. Further, the “effect on the inhibition of PGE2 caused by indomethacin” value with PGE2 is given as “Neither gabapentin nor CI-1008, at any dose tested, were able to significantly modify this effect”.

Take `NCC1(CC(=O)O)CCCCC1` [Gabapentin, 1-(aminomethyl)-cyclohexane acetic acid]: the “Colonic Threshold” value in assay [1] (500 mg/kg sc) is reported as 43.75 mm Hg; in assay [2] (100 mg/kg sc), 22.03 mm Hg; in assay [2] (300 mg/kg sc) it was 24.69 mm Hg; in assay [2] (500 mg/kg sc), 36.88 mm Hg. Besides, in assay [2] (500 mg/kg sc), the “effect of TNBS on colonic pain (in words)” value was “completely blocked”. For the same molecule, in assay [2], the “dose relation of the inhibition of TNBS-induced colonic allodynia” value is “inhibited in a dose-related manner”. The “colonic inflammatory effect of TNBS (colon weight, area of hyperemia and necrosis, colonic myeloperoxidase content)” value in assay [2] is “neither gabapentin nor CI-1008 inhibited”. In addition, the “PGE2 Synthesis” value in the assay on PGE2 (setting [3]) is 1783.66 ± 73.47 pg/mL; with PGE2 (setting [4]), 3065.78 ± 137.19 pg/mL; in the assay on PGE2 (setting [5]), 2997.90 ± 226.80 pg/mL; in the assay on PGE2 (setting [6]), 2615.74 ± 165.36 pg/mL. Moreover, in the assay on PGE2, the “effect on the inhibition of PGE2 caused by indomethacin” value is on record as “Neither gabapentin nor CI-1008, at any dose tested, were able to significantly modify this effect”.

These data come from patent EP0974351A2, “Medicament for preventing and treating gastrointestinal damage” (JOUVEINAL, priority 1998, dated 2000).
